Assay results published in PubChem BioAssay AID248 (DTP/NCI, 2004).
“And” between values parts separate entries of the source, which are not always exact repeats. Equal entries are not always repeated. Toxic doses and inconclusive results are not listed.

System: L1210 leukemia ip in BDF1 mice, survival T/C
Experiment: NCI In Vivo Anticancer Drug Screen. Data for tumor model L1210 Leukemia (intraperitoneal) in B6D2F1 (BDF1) mice
Conditions: endpoint: mean survival time, higher = longer survival
Method in brief: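 Mice bearing the transplanted tumor received compound or vehicle. Survival of the treated group was divided by that of the vehicle-treated control group to give the ratio.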

## OC(CBr)C(O)C(O)C(O)CBr (configuration not stated)
dose: 15.6 mg/kg/injection, schedule: Q03HX008 (ip), vehicle: carboxymethylcellulose (CMC)
  T/C: 90 % of control
dose: 15.6 mg/kg/injection, schedule: Q03HX024 (ip), vehicle: carboxymethylcellulose (CMC)
  T/C: 91 % of control
dose: 31.2 mg/kg/injection, schedule: Q#A X034 (ip), vehicle: carboxymethylcellulose (CMC)
  T/C: 99 % of control
dose: 31.25 mg/kg/injection, schedule: Q01DX Z (ip), vehicle: carboxymethylcellulose (CMC)
  T/C: 94 % of control
dose: 31.3 mg/kg/injection, schedule: Q03HX008 (ip), vehicle: carboxymethylcellulose (CMC)
  T/C: 96 % of control
dose: 31.3 mg/kg/injection, schedule: Q03HX024 (ip), vehicle: carboxymethylcellulose (CMC)
  T/C: 93 % of control
dose: 62.5 mg/kg/injection, schedule: Q01DX001 (ip), vehicle: carboxymethylcellulose (CMC)
  T/C: 101 % of control
dose: 62.5 mg/kg/injection, schedule: Q01DX009 (ip), vehicle: carboxymethylcellulose (CMC)
  T/C: 104 % of control
dose: 62.5 mg/kg/injection, schedule: Q01DX017 (ip), vehicle: carboxymethylcellulose (CMC)
  T/C: 98 % of control
dose: 62.5 mg/kg/injection, schedule: Q03HX008 (ip), vehicle: carboxymethylcellulose (CMC)
  T/C: 97 % of control and 98 % of control
dose: 62.5 mg/kg/injection, schedule: Q03HX024 (ip), vehicle: carboxymethylcellulose (CMC)
  T/C: 87 % of control
dose: 62.5 mg/kg/injection, schedule: Q#A X034 (ip), vehicle: carboxymethylcellulose (CMC)
  T/C: 95 % of control
dose: 63.0 mg/kg/injection, schedule: Q01DX Z (ip), vehicle: carboxymethylcellulose (CMC)
  T/C: 103 % of control and 94 % of control
dose: 71.0 mg/kg/injection, schedule: Q01DX009 (oral), vehicle: carboxymethylcellulose (CMC)
  T/C: 97 % of control
dose: 100.0 mg/kg/injection, schedule: Q01DX001 (ip), vehicle: saline
  T/C: 98 % of control
dose: 100.0 mg/kg/injection, schedule: Q01DX009 (ip), vehicle: other
  T/C: 103 % of control
dose: 106.0 mg/kg/injection, schedule: Q01DX009 (ip), vehicle: saline
  T/C: 100 % of control
dose: 107.0 mg/kg/injection, schedule: Q## X006 (oral), vehicle: carboxymethylcellulose (CMC)
  T/C: 94 % of control
dose: 120.0 mg/kg/injection, schedule: Q01DX001 (ip), vehicle: carboxymethylcellulose (CMC)
  T/C: 97 % of control
dose: 125.0 mg/kg/injection, schedule: Q01DX001 (ip), vehicle: carboxymethylcellulose (CMC)
  T/C: 95 % of control and 92 % of control
dose: 125.0 mg/kg/injection, schedule: Q01DX009 (ip), vehicle: carboxymethylcellulose (CMC)
  T/C: 104 % of control
dose: 125.0 mg/kg/injection, schedule: Q01DX015 (ip), vehicle: saline
  T/C: 102 % of control
dose: 125.0 mg/kg/injection, schedule: Q01DX Z (ip), vehicle: carboxymethylcellulose (CMC)
  T/C: 98 % of control and 92 % of control
dose: 125.0 mg/kg/injection, schedule: Q02DX005 (ip), vehicle: carboxymethylcellulose (CMC)
  T/C: 100 % of control
dose: 125.0 mg/kg/injection, schedule: Q02DX008 (ip), vehicle: carboxymethylcellulose (CMC)
  T/C: 95 % of control
dose: 125.0 mg/kg/injection, schedule: Q03HX008 (ip), vehicle: carboxymethylcellulose (CMC)
  T/C: 98 % of control
dose: 125.0 mg/kg/injection, schedule: Q03HX024 (ip), vehicle: carboxymethylcellulose (CMC)
  T/C: 105 % of control
dose: 125.0 mg/kg/injection, schedule: Q04DX003 (ip), vehicle: carboxymethylcellulose (CMC)
  T/C: 87 % of control
dose: 160.0 mg/kg/injection, schedule: Q01DX009 (ip), vehicle: saline
  T/C: 102 % of control
dose: 160.0 mg/kg/injection, schedule: Q## X006 (oral), vehicle: carboxymethylcellulose (CMC)
  T/C: 95 % of control
dose: 177.0 mg/kg/injection, schedule: Q01DX009 (ip), vehicle: acetone
  T/C: 113 % of control
dose: 200.0 mg/kg/injection, schedule: Q01DX001 (ip), vehicle: other
  T/C: 97 % of control
dose: 200.0 mg/kg/injection, schedule: Q01DX001 (ip), vehicle: saline
  T/C: 96 % of control
dose: 200.0 mg/kg/injection, schedule: Q01DX009 (ip), vehicle: other
  T/C: 105 % of control
dose: 240.0 mg/kg/injection, schedule: Q01DX009 (ip), vehicle: saline
  T/C: 104 % of control
dose: 240.0 mg/kg/injection, schedule: Q## X003 (oral), vehicle: carboxymethylcellulose (CMC)
  T/C: 96 % of control
dose: 250.0 mg/kg/injection, schedule: Q01DX001 (ip), vehicle: carboxymethylcellulose (CMC)
  T/C: 95 % of control and 104 % of control
dose: 250.0 mg/kg/injection, schedule: Q01DX009 (ip), vehicle: carboxymethylcellulose (CMC)
  T/C: 98 % of control
dose: 250.0 mg/kg/injection, schedule: Q01DX015 (ip), vehicle: saline
  T/C: 110 % of control
dose: 250.0 mg/kg/injection, schedule: Q01DX Z (ip), vehicle: carboxymethylcellulose (CMC)
  T/C: 93 % of control and 106 % of control
dose: 250.0 mg/kg/injection, schedule: Q02DX005 (ip), vehicle: carboxymethylcellulose (CMC)
  T/C: 95 % of control
dose: 250.0 mg/kg/injection, schedule: Q04DX003 (ip), vehicle: carboxymethylcellulose (CMC)
  T/C: 97 % of control
dose: 250.0 mg/kg/injection, schedule: Q#A X034 (ip), vehicle: carboxymethylcellulose (CMC)
  T/C: 98 % of control
dose: 266.0 mg/kg/injection, schedule: Q01DX001 (ip), vehicle: acetone
  T/C: 189 % of control
dose: 266.0 mg/kg/injection, schedule: Q01DX001 (ip), vehicle: saline
  T/C: 102 % of control
dose: 266.0 mg/kg/injection, schedule: Q01DX009 (ip), vehicle: acetone
  T/C: 110 % of control
dose: 266.0 mg/kg/injection, schedule: Q04DX003 (ip), vehicle: acetone
  T/C: 108 % of control
dose: 266.0 mg/kg/injection, schedule: Q04DX003 (ip), vehicle: saline
  T/C: 100 % of control and 98 % of control
dose: 266.0 mg/kg/injection, schedule: Q08DX002 (ip), vehicle: acetone
  T/C: 102 % of control
dose: 266.0 mg/kg/injection, schedule: Q08DX002 (ip), vehicle: saline
  T/C: 100 % of control
dose: 360.0 mg/kg/injection, schedule: Q01DX009 (ip), vehicle: saline
  T/C: 104 % of control
dose: 400.0 mg/kg/injection, schedule: Q01DX001 (ip), vehicle: acetone
  T/C: 110 % of control
dose: 400.0 mg/kg/injection, schedule: Q01DX001 (ip), vehicle: other
  T/C: 105 % of control
dose: 400.0 mg/kg/injection, schedule: Q01DX001 (ip), vehicle: saline
  T/C: 101 % of control and 104 % of control
dose: 400.0 mg/kg/injection, schedule: Q01DX009 (ip), vehicle: acetone
  T/C: 113 % of control
dose: 400.0 mg/kg/injection, schedule: Q01DX009 (ip), vehicle: other
  T/C: 97 % of control
dose: 400.0 mg/kg/injection, schedule: Q04DX003 (ip), vehicle: acetone
  T/C: 112 % of control
dose: 400.0 mg/kg/injection, schedule: Q04DX003 (ip), vehicle: saline
  T/C: 102 % of control
dose: 400.0 mg/kg/injection, schedule: Q08DX002 (ip), vehicle: acetone
  T/C: 103 % of control
dose: 400.0 mg/kg/injection, schedule: Q08DX002 (ip), vehicle: saline
  T/C: 102 % of control
dose: 480.0 mg/kg/injection, schedule: Q01DX009 (sc), vehicle: carboxymethylcellulose (CMC)
  T/C: 93 % of control
dose: 480.0 mg/kg/injection, schedule: Q## X008 (ip), vehicle: carboxymethylcellulose (CMC)
  T/C: 94 % of control
dose: 500.0 mg/kg/injection, schedule: Q01DX001 (ip), vehicle: carboxymethylcellulose (CMC)
  T/C: 96 % of control and 100 % of control and 93 % of control
dose: 500.0 mg/kg/injection, schedule: Q01DX009 (ip), vehicle: carboxymethylcellulose (CMC)
  T/C: 105 % of control
dose: 500.0 mg/kg/injection, schedule: Q01DX015 (ip), vehicle: saline
  T/C: 110 % of control
dose: 500.0 mg/kg/injection, schedule: Q01DX Z (ip), vehicle: carboxymethylcellulose (CMC)
  T/C: 94 % of control and 104 % of control
dose: 500.0 mg/kg/injection, schedule: Q02DX005 (ip), vehicle: carboxymethylcellulose (CMC)
  T/C: 108 % of control
dose: 500.0 mg/kg/injection, schedule: Q04DX003 (ip), vehicle: carboxymethylcellulose (CMC)
  T/C: 95 % of control
dose: 540.0 mg/kg/injection, schedule: Q01DX009 (ip), vehicle: saline
  T/C: 111 % of control
dose: 600.0 mg/kg/injection, schedule: Q01DX001 (ip), vehicle: acetone
  T/C: 100 % of control
dose: 600.0 mg/kg/injection, schedule: Q01DX001 (ip), vehicle: saline
  T/C: 104 % of control
dose: 600.0 mg/kg/injection, schedule: Q01DX009 (ip), vehicle: acetone
  T/C: 113 % of control
dose: 600.0 mg/kg/injection, schedule: Q04DX003 (ip), vehicle: acetone
  T/C: 123 % of control
dose: 600.0 mg/kg/injection, schedule: Q04DX003 (ip), vehicle: saline
  T/C: 102 % of control
dose: 600.0 mg/kg/injection, schedule: Q08DX002 (ip), vehicle: acetone
  T/C: 103 % of control
dose: 600.0 mg/kg/injection, schedule: Q08DX002 (ip), vehicle: saline
  T/C: 102 % of control
dose: 800.0 mg/kg/injection, schedule: Q01DX001 (ip), vehicle: other
  T/C: 109 % of control
dose: 900.0 mg/kg/injection, schedule: Q01DX001 (ip), vehicle: acetone
  T/C: 108 % of control
dose: 900.0 mg/kg/injection, schedule: Q01DX001 (ip), vehicle: saline
  T/C: 105 % of control
dose: 900.0 mg/kg/injection, schedule: Q04DX003 (ip), vehicle: acetone
  T/C: 100 % of control
dose: 900.0 mg/kg/injection, schedule: Q04DX003 (ip), vehicle: saline
  T/C: 105 % of control
dose: 900.0 mg/kg/injection, schedule: Q08DX002 (ip), vehicle: acetone
  T/C: 100 % of control
dose: 900.0 mg/kg/injection, schedule: Q08DX002 (ip), vehicle: saline
  T/C: 94 % of control
dose: 1000.0 mg/kg/injection, schedule: Q01DX001 (ip), vehicle: carboxymethylcellulose (CMC)
  T/C: 100 % of control and 104 % of control and 94 % of control
dose: 1000.0 mg/kg/injection, schedule: Q01DX015 (ip), vehicle: saline
  T/C: 121 % of control
dose: 1000.0 mg/kg/injection, schedule: Q04DX003 (ip), vehicle: carboxymethylcellulose (CMC)
  T/C: 113 % of control
dose: 1440.0 mg/kg/injection, schedule: Q## X003 (oral), vehicle: carboxymethylcellulose (CMC)
  T/C: 96 % of control
